Measured values as given in patent US20100311714A1, “1H-IMIDAZO[4,5-c]QUINOLINONE COMPOUNDS” (priority 2009, published 2010).
Where two headings read alike, the source gives them in different places.

Molecular target: T1, PI3K beta (Homo sapiens, UniProt P42338)
T1 construct: for the full-length p110-b subunit are generated and fused by overlapping PCR; His tag (C); made in house; host or cells: baculovirus BV949; Tn5 (Trichoplusia ni) or TiniPro insect cells
Test: PI3K beta kinase assay (Kinase-Glo luminescence)
Assay type: biochemical
Procedure, shortened: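 Kinase-Glo luminescence read out ATP left after a 60-min room-temperature reaction, started with ATP (1 μM final) on 25 nM His-tagged p85 iSH2–p110β (BV949) plus 10 μg/mL PI substrate in pH 7.5 Tris buffer. Percent inhibition at eight concentrations was fitted to a four-parameter logistic model for IC50.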

T1 sequence (P42338 with tags, fused parts or gaps limits assumed): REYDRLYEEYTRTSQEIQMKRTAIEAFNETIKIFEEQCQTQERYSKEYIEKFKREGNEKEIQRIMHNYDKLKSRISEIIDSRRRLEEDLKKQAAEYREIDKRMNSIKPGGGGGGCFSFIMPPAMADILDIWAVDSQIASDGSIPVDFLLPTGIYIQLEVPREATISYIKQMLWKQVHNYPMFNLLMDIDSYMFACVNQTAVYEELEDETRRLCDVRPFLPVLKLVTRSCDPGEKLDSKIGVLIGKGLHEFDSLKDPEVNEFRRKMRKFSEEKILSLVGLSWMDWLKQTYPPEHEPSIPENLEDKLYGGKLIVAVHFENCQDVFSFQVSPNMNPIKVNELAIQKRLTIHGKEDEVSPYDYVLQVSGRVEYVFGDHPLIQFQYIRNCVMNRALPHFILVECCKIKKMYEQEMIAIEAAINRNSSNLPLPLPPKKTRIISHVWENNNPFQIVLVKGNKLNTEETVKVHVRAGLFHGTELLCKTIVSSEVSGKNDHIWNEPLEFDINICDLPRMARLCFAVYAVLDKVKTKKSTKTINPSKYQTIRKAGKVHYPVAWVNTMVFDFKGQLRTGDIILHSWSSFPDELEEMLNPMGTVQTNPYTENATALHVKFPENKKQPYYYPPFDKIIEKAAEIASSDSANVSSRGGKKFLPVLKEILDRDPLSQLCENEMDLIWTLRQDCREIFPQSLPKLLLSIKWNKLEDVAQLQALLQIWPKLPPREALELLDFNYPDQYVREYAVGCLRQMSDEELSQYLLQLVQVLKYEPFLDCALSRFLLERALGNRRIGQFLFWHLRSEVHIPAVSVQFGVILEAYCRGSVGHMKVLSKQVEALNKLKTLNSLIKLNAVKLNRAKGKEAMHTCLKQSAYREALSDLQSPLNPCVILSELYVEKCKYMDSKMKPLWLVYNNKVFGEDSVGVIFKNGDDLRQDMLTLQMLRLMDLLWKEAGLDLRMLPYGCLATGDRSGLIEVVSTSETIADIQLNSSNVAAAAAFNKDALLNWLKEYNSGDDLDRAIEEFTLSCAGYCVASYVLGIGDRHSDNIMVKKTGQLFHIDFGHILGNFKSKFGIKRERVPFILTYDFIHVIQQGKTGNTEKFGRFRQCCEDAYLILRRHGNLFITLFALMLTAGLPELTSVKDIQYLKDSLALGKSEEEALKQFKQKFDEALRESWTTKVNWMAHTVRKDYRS

Structure (SMILES) | IC50 (read-out: EPK_PI3Kbeta/IC50) [nM] | IC50 (read-out: PI3Kbeta/IC50) [nM]
Cc1nc(N2CC(F)(F)C(F)(F)C2)ccc1-n1c(=O)n(C)c2cnc3ccc(-c4cncc(C(C)(C)O)c4)cc3c21 [Example 35.1, 8-[5-(1-Hydroxy-1-methyl-ethyl)-pyridin-3-yl]-3-methyl-1-[2-methyl-6-(3,3,4,4-tetrafluoro-pyrrolidin-1-yl)-pyridin-3-yl]-1,3-dihydro-imidazo[4,5-c]quinolin-2-one] | 34 | 
COc1cc(-c2ccc3ncc4c(c3c2)n(-c2ccc(N(C)C)nc2C)c(=O)n4C)cnc1CO [Example 19.4, 1-(6-Dimethylamino-2-methyl-pyridin-3-yl)-8-(6-hydroxymethyl-5-methoxy-pyridin-3-yl)-3-methyl-1,3-dihydro-imidazo[4,5-c]quinolin-2-one] | < 3 | 
CCOc1ccc(-c2ccc3ncc4c(c3c2)n(-c2cncc(C)c2)c(=O)n4C)cn1 [Example 17.1, 8-(6-Ethoxy-pyridin-3-yl)-3-methyl-1-(5-methyl-pyridin-3-yl)-1,3-dihydro-imidazo[4,5-c]quinolin-2-one] | 3950 | 
COCCN(C)c1ccc(-n2c(=O)n(C)c3cnc4ccc(-c5cnc(N)c(C(F)(F)F)c5)cc4c32)c(C)n1 [Example 15.1, 8-(6-Amino-5-trifluoromethyl-pyridin-3-yl)-1-{6-[(2-methoxy-ethyl)-methyl-amino]-2-methyl-pyridin-3-yl}-3-methyl-1,3-dihydro-imidazo[4,5-c]quinolin-2-one] | 15 | 
CNc1ncc(-c2ccc3ncc4c(c3c2)n(-c2ccc(C)nc2C)c(=O)n4C)cn1 [Example 14.4, 1-(2,6-Dimethyl-pyridin-3-yl)-3-methyl-8-(2-methylamino-pyrimidin-5-yl)-1,3-dihydro-imidazo[4,5-c]quinolin-2-one] | 282 | 
COc1ccc(-n2c(=O)n(C)c3cnc4ccc(-c5cnc(N(C)C)nc5)cc4c32)c(Cl)n1 [Example 18.3, 1-(2-Chloro-6-methoxy-pyridin-3-yl)-8-(2-dimethylamino-pyrimidin-5-yl)-3-methyl-1,3-dihydro-imidazo[4,5-c]quinolin-2-one] | 45 | 
CNc1ncc(-c2ccc3ncc4c(c3c2)n(-c2ccc(N(C)C)nc2C)c(=O)n4C)cn1 [Example 19.1, 1-(6-Dimethylamino-2-methyl-pyridin-3-yl)-3-methyl-8-(2-methylamino-pyrimidin-5-yl)-1,3-dihydro-imidazo[4,5-c]quinolin-2-one] | 99 | 
CCOc1cc(-c2ccc3ncc4c(c3c2)n(-c2cccnc2C)c(=O)n4C)cnc1C [Example 2.22, 8-(5-Ethoxy-6-methyl-pyridin-3-yl)-3-methyl-1-(2-methyl-pyridin-3-yl)-1,3-dihydro-imidazo[4,5-c]quinolin-2-one] | 201 | 
CCOc1ccc(-c2ccc3ncc4c(c3c2)n(-c2cccnc2OC)c(=O)n4C)cn1 [Example 1.5, 8-(6-Ethoxy-pyridin-3-yl)-1-(2-methoxy-pyridin-3-yl)-3-methyl-1,3-dihydro-imidazo[4,5-c]quinolin-2-one] |  | 505
Cc1nc(C(C)(C)O)ccc1-n1c(=O)n(C)c2cnc3ccc(-c4cncc(OC(C)C)c4)cc3c21 [Example 31.9, 1-[6-(1-Hydroxy-1-methyl-ethyl)-2-methyl-pyridin-3-yl]-8-(5-isopropoxy-pyridin-3-yl)-3-methyl-1,3-dihydro-imidazo[4,5-c]quinolin-2-one] | 62 | 
CNc1ncc(-c2ccc3ncc4c(c3c2)n(-c2ccc(NC(=O)COC)nc2C)c(=O)n4C)cn1 [Example 20.3, 2-Methoxy-N-{6-methyl-5-[3-methyl-8-(2-methylamino-pyrimidin-5-yl)-2-oxo-2,3-dihydro-imidazo[4,5-c]quinolin-1-yl]-pyridin-2-yl}-acetamide] | 2760 | 
Cc1cc(F)ncc1-n1c(=O)n(C)c2cnc3ccc(-c4cnc5c(ccn5C)c4)cc3c21 [Example 16.5, 1-(6-Fluoro-4-methyl-pyridin-3-yl)-3-methyl-8-(1-methyl-1H-pyrrolo[2,3-b]pyridin-5-yl)-1,3-dihydro-imidazo[4,5-c]quinolin-2-one] | 261 | 
CCN(C)c1ccc(-n2c(=O)n(C)c3cnc4ccc(-c5ccc(NC)nc5)cc4c32)c(C)n1 [Example 12.1, 1-[6-(Ethyl-methyl-amino)-2-methyl-pyridin-3-yl]-3-methyl-8-(6-methylamino-pyridin-3-yl)-1,3-dihydro-imidazo[4,5-c]quinolin-2-one] | 154 | 
COc1ccc(-n2c(=O)n(C)c3cnc4ccc(-c5ccc6nccn6c5)cc4c32)c(OC)n1 [Example 8.10, 1-(2,6-Dimethoxy-pyridin-3-yl)-8-imidazo[1,2-a]pyridin-6-yl-3-methyl-1,3-dihydro-imidazo[4,5-c]quinolin-2-one] | 1340 | 
Cc1ncccc1-n1c(=O)n(C)c2cnc3ccc(-c4cnc5c(ccn5C)c4)cc3c21 [Example 2.14, 3-Methyl-1-(2-methyl-pyridin-3-yl)-8-(1-methyl-1H-pyrrolo[2,3-b]pyridin-5-yl)-1,3-dihydro-imidazo[4,5-c]quinolin-2-one] |  | 315
CCNc1cc(-c2ccc3ncc4c(c3c2)n(-c2ccc(N(C)CC)nc2C)c(=O)n4C)cnc1C [Example 12.2, 8-(5-Ethylamino-6-methyl-pyridin-3-yl)-1-[6-(ethyl-methyl-amino)-2-methyl-pyridin-3-yl]-3-methyl-1,3-dihydro-imidazo[4,5-c]quinolin-2-one] | 49 | 
Cc1ccc(-n2c(=O)n(C)c3cnc4ccc(-c5cnc6c(ccn6C)c5)cc4c32)c(C)n1 [Example 14.7, 1-(2,6-Dimethyl-pyridin-3-yl)-3-methyl-8-(1-methyl-1H-pyrrolo[2,3-b]pyridin-5-yl)-1,3-dihydro-imidazo[4,5-c]quinolin-2-one] | 1100 | 
